The source of these data is US12618096B2, “Rapid screen for antibiotic resistance and treatment regimen” (priority 2020, dated 2026).

Common to all, as to type: cell-based
For one experiment, the system named is A. baumannii ATCC 17978. Description: Resistance profile of bacterial strain.
The subject of experiment [1] is A. baumannii ATCC 17978 ColR. The experiment is described as follows: Resistance profile of bacterial strain.
In the next experiment the test system is P. aeruginosa PAO1. Description: Resistance profile of bacterial strain.
A further experiment relates to A. baumannii NCTC 10303. Description: Resistance profile of bacterial strain.
The subject of a further experiment is A. baumannii NCTC 13302. The experiment is described as follows: Resistance profile of bacterial strain.
The subject of experiment [2] is Klebsiella pneumoniae (NCTC 13368). Description: Bacterial impedance flow cytometry of antimicrobial peptides. As to conditions: at the concentrations tested. How it is done:
The method for determining the efficacy of different membrane penetrating peptide antimicrobials is essentially the same as for Example 1. Briefly, colonies are picked from plate carrying bacteria from a clinical sample (e.g. a urine sample from suspected UTI) into Tryptone soy broth (TSB) and incubated for 30 minutes prior to addition of the membrane penetrating peptide antimicrobial preparation. The incubation is typically carried out at 37° C. with shaking. […] The concentrations are selected to span the minimum inhibitory concentration of the two strains, as might be used clinically for an antimicrobial breakpoint determination. Optionally, the bacterial impedance flow cytometry method may be used to generate a measurement of the minimum inhibitory concentration or a fixed concentration is used on the basis of a resistant/susceptible breakpoint. The sample is incubated at 37° C. for 30 or 60 minutes in a static incubator at 37° C. The population at each timepoint is analysed using bacterial impedance flow cytometry and the data collected and analysed to measure both the viable cell number and any migration of the cell population out of a contour enclosing a percentage of a control or untreated population of the same species.
The bacterial impedance of the population was measured. […]

Colistin: the Resistance profile result with A. baumannii ATCC 17978 was “Sensitive”; in experiment [1], “Colistin-Resistant Ciprofloxacin-Resistant;”; in the experiment with P. aeruginosa PAO1, “Sensitive”; in the experiment with A. baumannii NCTC 10303 it was “Sensitive”; with A. baumannii NCTC 13302, “Sensitive”.

Consider `CC[C@H](C)[C@H](NC(=O)CN)C(=O)NCC(=O)N[C@@H](C)C(=O)N[C@H](C(=O)N[C@@H](CC(C)C)C(=O)N[C@@H](CCCCN)C(=O)N[C@H](C(=O)N[C@@H](CC(C)C)C(=O)N[C@H](C(=O)N[C@H](C(=O)NCC(=O)N[C@@H](CC(C)C)C(=O)N1CCC[C@H]1C(=O)N[C@@H](C)C(=O)N[C@@H](CC(C)C)C(=O)N[C@H](C(=O)N[C@@H](CO)C(=O)N[C@@H](Cc1c[nH]c2ccccc12)C(=O)N[C@H](C(=O)N[C@@H](CCCCN)C(=O)N[C@@H](CCCNC(=N)N)C(=O)N[C@@H](CCCCN)C(=O)N[C@@H](CCCNC(=N)N)C(=O)N[C@@H](CCC(N)=O)C(=O)N[C@@H](CCC(N)=O)C(N)=O)[C@@H](C)CC)[C@@H](C)CC)[C@@H](C)O)[C@@H](C)O)C(C)C)C(C)C` [melittin], for which the “Susceptibility of NCTC 13368 relative to NCTC 12923” value in experiment [2] is on record as “lower susceptibility”.

Take `O=C(O)c1cn(C2CC2)c2cc(N3CCNCC3)c(F)cc2c1=O` [Ciprofloxacin]: the Resistance profile result is “Resistant” in the experiment on A. baumannii ATCC 17978; “Colistin-Resistant Ciprofloxacin-Resistant;” in experiment [1]; “Resistant” with P. aeruginosa PAO1; “Resistant” in the experiment with A. baumannii NCTC 10303; “Resistant” in the experiment with A. baumannii NCTC 13302.

For the compound Piperacillin/tazobactam, the Resistance profile result in the experiment on A. baumannii ATCC 17978 is “Piperacillin/tazobactam -Sensitive”; in experiment [1], “Piperacillin/tazobactam -Sensitive”; in the experiment on P. aeruginosa PAO1 it was “Piperacillin/tazobactam -Sensitive”; in the experiment on A. baumannii NCTC 10303, “Piperacillin/tazobactam -sensitive”; with A. baumannii NCTC 13302, “Piperacillin/tazobactam -Resistant”.

For the compound Gentamicin, the Resistance profile result was “Resistant” in the experiment on A. baumannii ATCC 17978; “Resistant” in experiment [1]; “Resistant” in the experiment with P. aeruginosa PAO1; “resistant” in the experiment on A. baumannii NCTC 10303; “Gentamicin- Resistant; Imipenem -Resistant;” in the experiment on A. baumannii NCTC 13302.
